Experiment [1] deals with T1, regulatory RIIα subunits of PKA (Homo sapiens, UniProt P13861).
T1 construct: Prof; Dr. Friedrich W. Herberg, University of Kassel, Germany (obtained from an academic laboratory, not a vendor)
Briefly: RII overlay of membrane-bound (SPOT) peptides, radiolabelled RIIα as probe, densitometry. The experiment is classed as binding. Particulars: human RIIα as probe; in words. An excerpt: (§1) Peptide libraries were synthesized by means of automatic SPOT synthesis on Whatman 50 cellulose membranes according to standard protocols using Fmoc chemistry and AutoSpot Robot ATE 222 (Intavis Bioanalytical Instruments AG, Cologne). The protective groups of the amino acid side chains were removed using a mixture of trifluoroacetic acid (TFA) in dichloromethane (DCM) (Frank, 1992; Kramer and Schneider-Mergener, 1998). For control, spots (about 50 nmol of peptide per spot) were cut from the cellulose membrane, removed from the membrane by treatment with 0.05 M NaOH, and analyzed using HPLC and MALDI-TOF mass spectrometry.
(§2) • 1. Regulatory RIIα (human) and RIIβ (rat) subunits of PKA, obtained from Prof. Dr. Friedrich W. Herberg, University of Kassel, Germany. • 2. Catalytic subunits of PKA, Promega, Mannheim, Germany, Order No. V5161 • 3. [γ-^32P]ATP, 5000 Ci/mmol, Amersham Biosciences, Brunswick, Germany, Order No. AA0018 • 4. Sephadex G 50, medium Pharmacia, Order No. 17-0043-01 • 5. Phosphate-buffered saline (PBS)
(§3) The ATP concentration was adjusted to 10 μM by addition of non-radioactive ATP (addition of 5 μl of a 1 mM solution). The batch was incubated on ice for another 50 min.
(§4) The reaction was quenched by adding dextran blue and removing free nucleotides. The free ATP was removed on a Sephadex G50 column.
(§5) Non-incorporated nucleotides were separated from the RII subunits by fractionation on Sephadex G 50 columns. • 1. Swelling of the Sephadex G 50 material: 20 g thereof was allowed to swell in 400 ml of PBS at room temperature overnight. Non-settled material was subsequently removed with a Pasteur pipette. The swollen material was aliquoted in 50 ml Falcon tubes and stored at 4° C. For preservation, sodium azide was added to make a final concentration of 0.01%. • 2. The material was poured into a 10 ml sterile disposable pipette sealed with a glass sphere. To settle the column bed, 50 ml of PBS containing 1 mg/ml BSA (bovine serum albumin) was allowed to pass.
(§6) Until used, the column was sealed with parafilm at the top thereof. • 3. The labelled RII subunits (500 μl), together with dextran blue (70 μl of a 20 mg/ml solution), were applied on the column (overall volume=570 μl). • 4. The sample was allowed to migrate into the matrix, followed by filling up with PBS. • 5. A short time before the dextran blue was eluted, collection of fractions was begun (2 fractions of 1.5 ml each, the other fractions 1 ml each). • 6. To determine the incorporation of ^32P, 1% (5.7 μl) of sample upstream of the column (corresponding to 1% of the radioactivity employed) and 3 μl of each fraction were used. • 7. The fractions of the first peak including the probe were combined. The incorporation rate in % was calculated and the specific activity (cpm/μg of protein) was determined.
(§7) • 1. The proteins (40 μg) were separated by means of SDS-PAGE and transferred on a PVDF membrane (PVDF: polyvinylidene fluoride) using a semi-dry electroblotting procedure. The membrane-associated proteins were stained with Ponceau S in order to identify the marker proteins on the membrane. Destaining was effected using TBS. • 2. The membrane was incubated in Blotto/BSA at 4° C. for 16 hours:
(§8) • 3. Blotto/BSA was replaced with fresh one and ^32P-labelled RII subunits were added (10^5 cpm/ml). This was incubated for 4-6 h at room temperature. • 4. The membrane was washed for 4×15 min in Blotto/BSA and for 2×10 min in 10 mM potassium phosphate buffer, pH 7.4, 0.15 M NaCl. • 5. RII-binding proteins were detected by exposition on a phosphoimager plate.
(§9) Identification of AKAP18δ-derived peptides inhibiting the interaction of AKAP proteins with the regulatory RIIα and RIIβ subunits of PKA. A: Peptides derived from the PKA binding domain of AKAP18δ were synthesized on two membranes. The membranes were incubated with radiolabelled regulatory RIIα (upper row) or RIIβ subunits (row below) of the PKA (RII overlay experiment). […]

Experiment [2] deals with T2, regulatory RIIβ subunits of PKA (Rattus norvegicus, UniProt P12369).
T2 construct: Prof; Dr. Friedrich W. Herberg, University of Kassel, Germany (obtained from an academic laboratory, not a vendor)
Briefly: RII overlay of membrane-bound (SPOT) peptides, radiolabelled RIIβ as probe, densitometry. The format is binding. Particulars: in words.
Source text: as §1, §2, §3, §4, §5, §6, §7, §8, §9

For the next experiment, the target named is RIIα subunits of the PKA (Homo sapiens, UniProt P13861). Nature of the experiment: Summary statement on RIIα binding of AKAP18δ-derived peptides. Particulars: in words. An excerpt: We explain this by binding via hydrogen bridges (H bridges) between peptide and RII dimer (see Fig., hydrogen bridges represented by broken lines). Correspondingly, a common feature of the peptides is the minimum number (8) of amino acids forming H bridges.

The next experiment has as its target human RIIα subunits (Homo sapiens, UniProt P13861). Nature of the experiment: Surface plasmon resonance measurement of peptide binding to RIIα. (In SPR one partner is held on a chip, and binding of the other changes the refractive index at the surface.)
The target of the next experiment is RIIβ subunits from rats (Rattus norvegicus, UniProt P12369). Briefly: Surface plasmon resonance measurement of peptide binding to RIIβ.
The target in experiment [3] is murine RIIα subunit of PKA (Mus musculus, UniProt P12367). To be noted: Alto et al. (2003); cited from earlier work.
Experiment [4] addresses T3, regulatory RIIα subunit of PKA (human) (human, UniProt P13861 1-404, 32P-labelled with the catalytic subunit of PKA when used as probe in the RII overlay experiments).
T3 construct: Radiolabelled probe in RII overlays; format in the surface plasmon resonance measurements is not described; also called human RIIα
Briefly: RII overlay on SPOT membrane, densitometry; reference AKAP18δ-wt.

Experiment [5] deals with T4, regulatory RIIβ subunit of PKA (rat) (rat, UniProt P12369 1-416, 32P-labelled with the catalytic subunit of PKA when used as probe in the RII overlay experiments).
T4 construct: Radiolabelled probe in RII overlays; format in the surface plasmon resonance measurements is not described; also called RIIβ subunit of PKA from rats
The experiment is described as above.

In experiment [6] the target is T3, regulatory RIIα subunit of PKA (human). Nature of the experiment: RII overlay on SPOT membrane, densitometry; references AKAP18δ-L304T and AKAP18δ-L314E.
The target in experiment [7] is T4, regulatory RIIβ subunit of PKA (rat). Described as above.
A further experiment concerns RII subunits of the PKAs. Briefly: Summary statement on RII binding of AKAP18δ-derived negative control peptides. Particulars: negative controls; in words. The text has this:
They have in common that binding is no longer present due to structural differences (1, 2) or differences in charge (3, 4).

The target of experiment [8] is T4, regulatory RIIβ subunit of PKA (rat). Nature of the experiment: surface plasmon resonance.
Experiment [9] deals with T3, regulatory RIIα subunit of PKA (human). Nature of the experiment: surface plasmon resonance.
Experiment [10] shares this target. Nature of the experiment: RII overlay on SPOT membrane with radiolabelled RIIα.
Experiment [11] has as its target T4, regulatory RIIβ subunit of PKA (rat). Nature of the experiment: RII overlay on SPOT membrane with radiolabelled RIIβ.

Entries after “also recorded” stand apart in the source; their conditions may differ. No end group written: not given here.

RIIα subunits of the PKA, sequence (P13861 whole entry): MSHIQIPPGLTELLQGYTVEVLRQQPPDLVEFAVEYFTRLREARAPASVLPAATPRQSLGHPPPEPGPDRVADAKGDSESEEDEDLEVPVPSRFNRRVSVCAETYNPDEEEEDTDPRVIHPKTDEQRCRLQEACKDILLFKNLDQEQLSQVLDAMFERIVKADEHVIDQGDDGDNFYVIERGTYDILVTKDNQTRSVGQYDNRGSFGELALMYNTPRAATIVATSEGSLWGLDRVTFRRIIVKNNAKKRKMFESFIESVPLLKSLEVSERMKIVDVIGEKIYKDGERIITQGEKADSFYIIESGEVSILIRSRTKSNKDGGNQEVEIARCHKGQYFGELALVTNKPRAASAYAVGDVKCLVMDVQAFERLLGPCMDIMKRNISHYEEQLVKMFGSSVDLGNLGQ
T1 sequence (P13861 whole entry): as above
human RIIα subunits, sequence (P13861 whole entry): as above
T3 sequence (P13861 whole entry): as above
murine RIIα subunit of PKA, sequence (P12367 whole entry): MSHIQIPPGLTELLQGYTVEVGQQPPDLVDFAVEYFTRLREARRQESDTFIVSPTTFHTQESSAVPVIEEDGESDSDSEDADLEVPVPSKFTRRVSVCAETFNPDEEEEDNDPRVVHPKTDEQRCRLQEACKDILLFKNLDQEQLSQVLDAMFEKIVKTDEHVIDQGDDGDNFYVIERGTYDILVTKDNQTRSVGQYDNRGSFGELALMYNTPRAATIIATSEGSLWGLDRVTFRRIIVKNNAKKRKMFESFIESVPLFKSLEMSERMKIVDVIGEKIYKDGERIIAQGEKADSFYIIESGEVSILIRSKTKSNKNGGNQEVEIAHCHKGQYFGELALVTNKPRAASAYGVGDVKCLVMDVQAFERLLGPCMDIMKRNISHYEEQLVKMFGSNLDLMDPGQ
RIIβ subunits from rats, sequence (P12369 whole entry): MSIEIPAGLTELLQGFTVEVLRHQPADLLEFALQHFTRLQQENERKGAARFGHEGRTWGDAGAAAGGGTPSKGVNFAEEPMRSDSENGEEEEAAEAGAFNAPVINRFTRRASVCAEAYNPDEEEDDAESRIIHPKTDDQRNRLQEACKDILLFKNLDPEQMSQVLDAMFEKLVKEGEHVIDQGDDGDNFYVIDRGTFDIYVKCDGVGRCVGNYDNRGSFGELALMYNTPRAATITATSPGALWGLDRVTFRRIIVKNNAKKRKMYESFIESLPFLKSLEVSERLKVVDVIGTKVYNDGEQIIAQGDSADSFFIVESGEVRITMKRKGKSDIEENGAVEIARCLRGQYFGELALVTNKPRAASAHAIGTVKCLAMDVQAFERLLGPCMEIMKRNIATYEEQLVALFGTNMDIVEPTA
T4 sequence (P12369 whole entry): as above
T2 sequence (P12369 whole entry): as above

As for `CC(C)C[C@H](NC(=O)[C@H](CCCNC(=N)N)NC(=O)[C@@H](NC(=O)[C@H](CC(C)C)NC(=O)[C@H](CCC(=O)O)NC(=O)[C@H](C)NC(=O)[C@H](CC(=O)O)NC(=O)[C@H](CCC(=O)O)NC(=O)[C@@H]1CCCN1)C(C)C)C(=O)N[C@@H](CO)C(=O)N[C@@H](CCCCN)C(=O)N[C@@H](CCCNC(=N)N)C(=O)N[C@@H](CC(C)C)C(=O)N[C@H](C(=O)N[C@@H](CCC(=O)O)C(=O)N[C@@H](CC(N)=O)C(=O)N[C@@H](C)C(=O)N[C@H](C(=O)N[C@@H](CCC(=O)O)C(=O)N[C@@H](CCCCN)C(=O)N[C@@H](C)C(=O)N[C@H](C(=O)N[C@@H](CCC(N)=O)C(=O)N[C@@H](CCC(N)=O)C(=O)N[C@@H](Cc1ccc(O)cc1)C(=O)O)C(C)C)C(C)C)C(C)C` [AKAP18δ-L314E], the “binding to RIIα subunits in RII overlay” value in experiment [1] was “stronger binding; also recorded: bind strongly”. Moreover, the “binding to RIIβ subunits in RII overlay” value in experiment [2] is on record as “stronger binding; also recorded: bind strongly”. Also, the “RIIα binding compared with peptides derived from natural AKAPs” value at RIIα subunits of the PKA was “bind stronger than any other peptide derived from natural AKAPs”.
For “AKAPIS [peptide developed by Alto et al. (2003); IS, in silico, reference compound]”, the “RIIα binding KD” value on human RIIα subunits is listed as “no binding”. In addition, on RIIβ subunits from rats, the “RIIβ binding KD” value is “no binding”. In addition, the “binding to RIIα subunits in RII overlay” value in experiment [1] is “barely bind”. Besides, the “binding to RIIβ subunits in RII overlay” value in experiment [2] is on record as “barely bind”. Besides, in [3], the Kd (as a rule, the constant that tells how readily two partners part at equilibrium) was 0.45 nM and the “affinity increased compared to the Ht31 peptide” value is reported as 5 times.
Take “EPEDAELVRLSKRLVENAVLKAVQQYLEETQ (listed as Homo sapiens) [AKAP18δ-RI]”: in experiment [1], the “binding to RIIα subunits in RII overlay” value is “weaker”. Moreover, the “binding to RIIβ subunits in RII overlay” value in experiment [2] is “weaker”. Moreover, the “RIIα binding compared with peptides derived from natural AKAPs” value in the experiment with RIIα subunits of the PKA is reported as “bind stronger than any other peptide derived from natural AKAPs”.
In the case of Ht31 (peptide), the fold weaker binding than AKAP18δ-wt in experiment [4] and in experiment [5] was 5 fold each time. The fold weaker binding than AKAP18δ-L304T and AKAP18δ-L314E in experiment [6] and in [7] was 5 to 6 fold in each case.
In the case of “KGADLIEEAASRIVDAVIEQVKAAG [Ht31, reference compound]”, the results for the Kd (on human RIIα subunits; at RIIβ subunits from rats; in experiment [3]) were 15 nM, 35 nM and 2.2 nM, respectively.
In the case of “PEDAELVRLSKRDVENAVLKAVQQY [AKAP18δ-L308D]”, the “RIIα binding KD” value on human RIIα subunits is given as “no binding”. Besides, the “RIIβ binding KD” value at RIIβ subunits from rats is reported as “no binding”. Moreover, the “binding to RIIα subunits in RII overlay” value in experiment [1] is “weaker”. Also, the “binding to RIIβ subunits in RII overlay” value in experiment [2] was “weaker”. Also, in the experiment with RII subunits of the PKAs, the “binding of RII subunits of the PKAs” value is “absent binding”.
“PEDAELVRTSKRLVENAVLKAVQQY [AKAP18δ-L304T]”: the Kd at human RIIα subunits is 0.3 to 0.9 nM; at RIIβ subunits from rats, 35 nM. Moreover, the “binding to RIIα subunits in RII overlay” value in experiment [1] is listed as “stronger binding; also recorded: bind strongly”. Further, in [2], the “binding to RIIβ subunits in RII overlay” value is recorded as “stronger binding; also recorded: bind strongly”. Further, the “RIIα binding compared with peptides derived from natural AKAPs” value on RIIα subunits of the PKA is listed as “bind stronger than any other peptide derived from natural AKAPs”.
Consider PEDAELVRLSKRLVENAVEKAVQQY (also called AKAP18delta-L314E; No. W) [AKAP18δ-L314E], for which binding in [8] was characterised by a dissociation constant (Kd) of 22 nM.

B1: AKAP18δ-P (peptide)
peptide: PEDAELVRLSKRLPENAVLKAVQQY
notes: Proline-substituted negative control; also called AKAP18delta-P; No. X
With B1, the binding result in experiment [9] and in [8] was “no binding” throughout.

B2: AKAP18δ-PP (peptide)
peptide: PEDAELVRLSKRLPENAPLKAVQQY
notes: Double proline-substituted negative control; also called AKAP18delta-PP
As to B2, the binding result in experiment [9] and in [8] was “no binding” in each case.

B3: A18δRIIαRn2 (10/11) (peptide)
peptide: ANDARLVRLNKRLVENAVLKAVQQY
notes: Member of the substitution library of peptide 7 (row 10, peptide 11); also called peptide 10/11; No. EE
As for B3, the values for the binding result in experiment [10] and in experiment [11] were “binds” and “no binding”, respectively.

B4: A18δRIIαRn3 (10/12) (peptide)
peptide: ANDARLVRLPKRLVENAVLKAVQQY
notes: Member of the substitution library of peptide 7 (row 10, peptide 12); also called peptide 10/12; No. FF
As to B4, the binding result was “binds” in experiment [10] and “no binding” in experiment [11].

B5: A18δRIIβRn1 (21/4) (peptide)
peptide: ANDARLVRLSKRLVENAVLKFVQQY
notes: Member of the substitution library of peptide 7 (row 21, peptide 4); also called peptide 21/4; A18δRIIβRnl
As to B5, the binding result was “no binding” in experiment [10] and “binds” in experiment [11].
